Values joined by “and” are separate entries in the source; they are usually repeats but may differ in a detail not shown here. Equal values may be shown once.
Assays:
[1] = system: SOD2 gene expression in SW1116 cells; experiment: SOD2 mRNA, real-time RT-qPCR, SW1116; format: cell-based; conditions: SW1116, 10 µg/mL, 24 h
Experimental: (§1) In addition, two colorectal cancer cell lines, RKO and SW1116, were distinguished based on a different response to the EB5 derivative. To perform subsequent analyses, the selected CRC lines were treated with EB5 derivative at a concentration of 10 µg/mL for 24 h. Untreated cells were used as a negative control. Three biological replicates were performed.
(§2) Total RNA from treated cells was extracted using TRIzol reagent (Sigma-Aldrich, St Louis, MO, USA) according to the manufacturer’s instructions. The obtained RNA was assessed qualitatively and quantitatively by agarose gel electrophoresis and by spectrophotometric measurement using MaestroNano MN-913 (MaestroGen Inc., Las Vegas, NV, USA), respectively. The obtained extracts provided the starting material for the assessment of genes changes at the mRNA level.
(§3) Changes in the expression of SOD1, SOD2, CAT and GPX3 genes involved in antioxidant systems were assessed by real-time RT-qPCR using a LightCycler® 480 System apparatus (Roche, Basel, Switzerland). A commercially purchased GoTaq® 1-Step RT-qPCR System (Promega, Madison, WI, USA) was used, while the primers and reaction conditions were the same as in the previous study performed by Kruszniewska-Rajs et al.. GAPDH was used as the reference gene. The mRNA expression level studied genes were then determined by the 2^−ΔCt relative quantification method. All samples were tested in triplicate. The specificity of the reaction was evaluated based on the melting temperature curve, as well as using electrophoresis of the amplification products in a 2% agarose gel.

[2] = system: superoxide dismutase (SOD) activity in SW1116 cells; experiment: SOD activity in SW1116 cells; format: cell-based; conditions: SW1116, 10 µg/mL, 24 h
Experimental: as §1
(§4) To examine the antioxidant capacity of the cells as well as lipid peroxidation and to evaluate the activity of antioxidant enzymes, the cells were suspended in lysis buffer (containing 4 mg of […]™ Protease Inhibitor Cocktail and 10 µL of Phosphatase Inhibitor Cocktail 3 in 1 mL of PBS; Sigma-Aldrich, St Louis, MO, USA). Subsequently, the cells were placed in liquid nitrogen for 30 min, followed by storage at −80 °C until further analysis.
(§5) Superoxide dismutase (SOD), glutathione peroxidase (GPx) and catalase (CAT) activities were assessed using a commercially purchased Cayman Chemicals Superoxide Dismutase Assay Kit, a Cayman Chemicals Glutathione Peroxidase Assay Kit and a Catalase Assay Kit (Cayman Chemicals, Ann Arbor, MI, USA), respectively, according to the manufacturer’s recommendations and based on a previous study. […] The level of change in absorbance was measured spectrophotometrically at the appropriate wavelength for the assay, i.e., for SOD in the range 440–460 nm, for GPx at 340 nm and for CAT at 540 nm.

[3] = system: CAT gene expression in RKO cells; experiment: CAT mRNA, real-time RT-qPCR, RKO; format: cell-based; conditions: 10 µg/mL, 24 h
Experimental: as §1, §2, §3

[4] = system: HCT116 cells; experiment: MTT cytotoxicity assay, HCT116; format: cell-based; conditions: Homo sapiens; HCT 116, MTT, 24 h; read-out: IC50 value
Excerpt: (§6) Control cells were not treated with the compounds.

[5] = system: catalase (CAT) activity in SW1116 cells; experiment: CAT activity in SW1116 cells; format: cell-based; conditions: SW1116, 10 µg/mL, 24 h
Experimental: as §1, §4
Superoxide dismutase (SOD), glutathione peroxidase (GPx) and catalase (CAT) activities were assessed using a commercially purchased Cayman Chemicals Superoxide Dismutase Assay Kit, a Cayman Chemicals Glutathione Peroxidase Assay Kit and a Catalase Assay Kit (Cayman Chemicals, Ann Arbor, MI, USA), respectively, according to the manufacturer’s recommendations and based on a previous study. The cell supernatant from previously prepared cell lysates of the tested lines provided material for further analyses. The level of change in absorbance was measured spectrophotometrically at the appropriate wavelength for the assay, i.e., for SOD in the range 440–460 nm, for GPx at 340 nm and for CAT at 540 nm.

[6] = system: RKO cells; experiment: MTT cytotoxicity assay, RKO; conditions: 24 h; for viability at 10 µg/mL / IC50: Homo sapiens; for IC50: read-out: IC50 value
Experimental: (§7) Six colorectal cancer cell lines, RKO, HT29, DLD-1, HCT116, Caco2 and SW1116 (CRL-2577, HTB-38, CCL-221, CCL-247, HTB-37, CCL-233; ATCC, Manassas, VA, USA, respectively, for CRC lines), and one normal cell line, CCD-841CoN (CRL-1790, ATCC, USA), were routinely cultured at 37 °C in a 5% CO2 incubator (Direct Heat CO2; Thermo Scientific, Waltham, MA, USA) in cell line-appropriate culture medium according to the manufacturer’s recommendations. Eagle’s minimum essential medium (EMEM) was used to culture RKO, Caco2 and CCD-841CoN lines, while McCoy’s 5A medium was used for HT29 and HCT116 lines. DLD-1 cells were grown in RPMI-1640 medium, whereas SW1116 cells were maintained in Leibovitz’s L-15 medium. All culture media were supplemented with 10% fetal bovine serum (EuroClone, Milan, Italy), and gentamycin at the concentration […] (BioWhittaker, Lonza, Basel, Switzerland) was also applied to prevent culture contamination.
(§8) For this purpose, cells were exposed to the test compound for 24 h at concentrations of 0.1, 1, 10, 20, 50 and 100 μg/mL. Control cells were not treated with the compounds. MTT (0.25 mg/mL) was then added to the cultures and incubated for 3 h at 37 °C. After a time, the cells were washed with phosphate buffered saline (PBS), and next, formazan dye was dissolved in 100 μL of dimethyl sulfoxide (Sigma-Aldrich, St Louis, MO, USA). Absorbance was measured at 540 nm using a Wallac 1420 VICTOR microplate reader (PerkinElmer, Waltham, MA, USA).

[7] = system: CAT gene expression in SW1116 cells; experiment: CAT mRNA, real-time RT-qPCR, SW1116; format: cell-based; conditions: SW1116, 10 µg/mL, 24 h
Experimental: as §1, §2, §3

[8] = system: RKO cells; experiment: Total antioxidant capacity (ABTS+), RKO; format: cell-based; conditions: 10 µg/mL, 24 h
Experimental: as §1, §4
The ABTS+ radical cation was used to assess the total antioxidant capacity (TAC) of the tested cells. The principle of the method is based on the reduction of the formed blue-green chromophore ABTS+ as a result of the reaction of ABTS (Sigma-Aldrich, St Louis, MO, USA) with potassium persulphate (Sigma-Aldrich, St Louis, MO, USA). The degree of decolorization of the ABTS+ radical cation depends on the antioxidant activity of the cells and is determined as a function of concentration and time in relation to Trolox reactivity (TEAC-Trolox equivalent antioxidant capacity).

[9] = system: CCD-841CoN cells; experiment: cells; format: cell-based; conditions: Homo sapiens; CCD-841CoN normal cells, MTT, 24 h; read-out: IC50 value
Excerpt: as §6

[10] = system: SW1116 cells; experiment: MTT cytotoxicity assay, SW1116; conditions: for viability at 10 µg/mL / IC50: Homo sapiens, SW 1116, 24 h; for IC50: read-out: IC50 value
Experimental: as §7, §8

[11] = system: HT29 cells; experiment: MTT cytotoxicity assay, HT29; format: cell-based; conditions: Homo sapiens, HT-29; HT29, MTT, 24 h; read-out: IC50 value
Excerpt: as §6

[12] = system: SOD1 gene expression in SW1116 cells; experiment: SOD1 mRNA, real-time RT-qPCR, SW1116; format: cell-based; conditions: SW1116, 10 µg/mL, 24 h
Experimental: as §1, §2, §3

[13] = system: Caco2 cells; experiment: MTT cytotoxicity assay, Caco2; format: cell-based; conditions: Homo sapiens, Caco-2; Caco2, MTT, 24 h; read-out: IC50 value
[14] = system: SOD1 gene expression in RKO cells; experiment: SOD1 mRNA, real-time RT-qPCR, RKO; format: cell-based; conditions: 10 µg/mL, 24 h
Experimental: as §1, §2, §3

[15] = system: SW1116 cells; experiment: Lipid peroxidation, MDA assay, SW1116; format: cell-based; conditions: SW1116, 10 µg/mL, 24 h
Experimental: (§9) In addition, two colorectal cancer cell lines, RKO and SW1116, were distinguished based on a different response to the EB5 derivative. […] Untreated cells were used as a negative control. Three biological replicates were performed. To examine the antioxidant capacity of the cells as well as lipid peroxidation and to evaluate the activity of antioxidant enzymes, the cells were suspended in lysis buffer (containing 4 mg of […]™ Protease Inhibitor Cocktail and 10 µL of Phosphatase Inhibitor Cocktail 3 in 1 mL of PBS; Sigma-Aldrich, St Louis, MO, USA). Subsequently, the cells were placed in liquid nitrogen for 30 min, followed by storage at −80 °C until further analysis. To assess the level of lipid peroxidation, the Malondialdehyde Assay Kit (Aoxre BioSciences, Burlingame, CA, USA) was used, according to the manufacturer’s recommendations.

[16] = system: RKO cells; experiment: Lipid peroxidation, MDA assay, RKO; format: cell-based; conditions: 10 µg/mL, 24 h
Experimental: as §9

[17] = system: DLD-1 cells; experiment: MTT cytotoxicity assay, DLD-1; format: cell-based; conditions: Homo sapiens; DLD-1, MTT, 24 h; read-out: IC50 value
Excerpt: as §6

[18] = system: glutathione peroxidase (GPx) activity in RKO cells; experiment: GPx activity in RKO cells; format: cell-based; conditions: 10 µg/mL, 24 h
Experimental: as §1, §4, §5

[19] = system: colorectal cancer cell lines RKO, HT29, DLD-1, HCT116, Caco2 and SW1116; experiment: MTT cytotoxicity assay, statements over all tested cell lines; conditions: MTT, 24 h
Experimental: as §7, §8

[20] = system: superoxide dismutase (SOD) activity in RKO cells; experiment: SOD activity in RKO cells; format: cell-based; conditions: 10 µg/mL, 24 h
Experimental: as §1, §4, §5

SMILES	CAT gene expression vs. untreated cells [3]	IC50 [4]	catalase activity compared to the control [5]	viability at 10 µg/mL [6] [%]	IC50 [6]	viability at 10 µg/mL [10] [%]	IC50 [10]	IC50 [11]	IC50 [13]	MDA level compared to the control [15]	increase in MDA levels compared to the control cells [16]	IC50 [17]	further results
C=C(C)[C@@H]1CC[C@]2(CO)CC[C@]3(C)[C@H](CC[C@@H]4[C@@]5(C)CC[C@H](O)C(C)(C)[C@@H]5CC[C@]43C)[C@@H]12 [Betulin, lup-20(29)-ene-3β,28-diol]	No statistically significant changes	4.63 µg/mL and 11 µM	did not cause changes	≥ 50	11.2 µg/mL and 25.2 µM	≥ 50	9.77 µg/mL and 23.1 µM	8.49 µg/mL and 20.1 µM	11.2 µg/mL and 26.5 µM	did not cause changes	about 73.1%	4.29 µg/mL and 10.2 µM	SOD2 gene expression vs. cisplatin [1]: Decreased SOD2 gene expression; increase in SOD activity compared to the untreated cells [2]: about 32.3%; decrease in the viability ([6]; 10 µg/mL): ≤ 50%; CAT gene expression vs. EB5 derivative [7]: decrease in expression was higher; CAT gene expression vs. cisplatin [7]: decrease in expression was higher; CAT gene expression vs. untreated cells [7]: statistically significant decrease in CAT gene expression; reduction in TAC compared to the control cells [8]: about 26.4%; IC50 [9]: 5.26 µg/mL and 12.4 µM; decrease in the viability ([10]; SW1116, 10 µg/mL, 24 h): ≤ 50%; SOD1 gene expression vs. EB5 derivative [12]: statistically significant difference; SOD1 gene expression vs. cisplatin [12]: statistically significant difference; SOD1 gene expression vs. non-treated cells [12]: statistically significant decrease in mRNA expression; SOD1 gene expression vs. non-treated cells ([12]; listed as B): statistically significant difference; SOD1 gene expression vs. cisplatin-treated cells [14]: decrease in SOD1 gene expression
O=c1[nH]cc(F)c(=O)[nH]1 [5FU, 5-fluorouracil]	significant decrease in expression	> 100 µg/mL and > 769 µM	higher catalase activity	≥ 50	> 100 µg/mL and > 769 µM	≥ 50	> 100 µg/mL and > 769 µM	> 100 µg/mL and > 769 µM	> 100 µg/mL and > 769 µM	did not cause changes	about 62.2%	> 100 µg/mL and > 769 µM	GPx activity vs. cells treated with EB5 [18]: slight increase; catalase activity compared to cells treated with EB5 [5]: higher catalase activity; catalase activity compared to cells treated with betulin [5]: higher catalase activity; cytotoxic effect compared with the other tested compounds [19]: weaker; SOD activity compared to cells treated with betulin [20]: modest increase

— PMC11352258, “The Influence of Betulin and Its Derivatives on Selected Colorectal Cancer Cell Lines’ Viability and Their Antioxidant Systems” (Cells, 2024)
